Reference: ChEMBL document CHEMBL4184318, “Identification of Fast-Acting 2,6-Disubstituted Imidazopyridines That Are Efficacious in the in Vivo Humanized Plasmodium falciparum NODscidIL2Rγ null Mouse Model of Malaria” (J Med Chem, 2018)
Converted amounts (≈) assume the structure as drawn.

Legend:
Assay type in all cases: physicochemical
Conditions in all cases: read-out: Kinetic_solubility
[1] = Kinetic solubility of the compound in HCl at pH 2 after 20 hrs by shake flask method
[2] = Kinetic solubility of the compound in phosphate buffered saline at pH 6.5 after 20 hrs by shake flask method
[3] = Kinetic solubility of the compound in FaSSIF at pH 6.5 after 20 hrs by shake flask method

SMILES	solubility kinetic at 20 h [1]	solubility kinetic at 20 h [2]	solubility kinetic at 20 h [3]
Fc1ccc(-c2nc3cnc(Nc4cc(C(F)(F)F)ccn4)cc3[nH]2)cc1F	< 5 µM	< 5 µM	50 to 100 µM (≈ 19.6 to 39.1 µg/mL)
CNC(=O)c1ccc(Nc2cc3[nH]c(-c4ccc(C(F)(F)F)nc4)nc3cn2)nc1	170 µM (≈ 70.3 µg/mL)	< 5 µM	< 5 µM
Fc1ccc(-c2nc3cnc(Nc4ccc(C(F)(F)F)cn4)cc3[nH]2)cc1F	6 µM (≈ 2.35 µg/mL)	< 5 µM	50 to 100 µM (≈ 19.6 to 39.1 µg/mL)
CC1(c2nc3cnc(Nc4ccc(C(F)(F)F)cn4)cc3[nH]2)CC1	200 µM (≈ 66.7 µg/mL)	188 µM (≈ 62.7 µg/mL)	179 µM (≈ 59.7 µg/mL)
FC(F)(F)c1cccc(-c2nc3cnc(Nc4ncccn4)cc3[nH]2)c1	155 µM (≈ 55.2 µg/mL)	< 5 µM	
COC(=O)c1ccc(Nc2cc3[nH]c(-c4ccc(C(F)(F)F)nc4)nc3cn2)nc1	182 µM (≈ 75.4 µg/mL)	12 µM (≈ 4.97 µg/mL)	16 µM (≈ 6.63 µg/mL)
Fc1cnc(Nc2cc3[nH]c(-c4cccc(C(F)(F)F)c4)nc3cn2)c(F)c1	< 5 µM	< 5 µM	50 to 100 µM (≈ 19.6 to 39.1 µg/mL)
FC(F)(F)c1cccc(-c2nc3cnc(Nc4ccc(N5CCOCC5)cn4)cc3[nH]2)c1	87 µM (≈ 38.3 µg/mL)	< 5 µM	35 µM (≈ 15.4 µg/mL)
O=C(c1ccc(Nc2cc3[nH]c(-c4ccc(C(F)(F)F)nc4)nc3cn2)nc1)N1CCOCC1	200 µM (≈ 93.9 µg/mL)	33 µM (≈ 15.5 µg/mL)	58 µM (≈ 27.2 µg/mL)
FC(F)(F)c1cccc(-c2nc3cnc(Nc4cnccn4)cc3[nH]2)c1	155 µM (≈ 55.2 µg/mL)	< 5 µM	
Fc1ccc(Nc2cc3[nH]c(-c4cccc(C(F)(F)F)c4)nc3cn2)nc1	< 5 µM	< 5 µM	50 to 100 µM (≈ 18.7 to 37.3 µg/mL)
O=C(O)c1ccc(Nc2cc3[nH]c(-c4ccc(C(F)(F)F)nc4)nc3cn2)nc1	8 µM (≈ 3.2 µg/mL)	< 5 µM	< 5 µM
FC(F)(F)c1ccc(Nc2cc3[nH]c(C4CC4)nc3cn2)nc1	198 µM (≈ 63.2 µg/mL)	< 5 µM	123 µM (≈ 39.3 µg/mL)
FC(F)(F)c1cccc(-c2nc3cnc(Nc4cccnn4)cc3[nH]2)c1	161 µM (≈ 57.4 µg/mL)	< 5 µM	
O=C(NC1CC1)c1ccc(Nc2cc3[nH]c(-c4ccc(C(F)(F)F)nc4)nc3cn2)nc1	99 µM (≈ 43.5 µg/mL)	< 5 µM	< 5 µM
O=C(O)c1ccnc(Nc2cc3[nH]c(-c4cccc(C(F)(F)F)c4)nc3cn2)c1	< 5 µM	< 5 µM	60 µM (≈ 24 µg/mL)
COc1ccnc(Nc2cc3[nH]c(-c4cccc(C(F)(F)F)c4)nc3cn2)c1	< 5 µM	< 5 µM	
NC(=O)c1ccc(Nc2cc3[nH]c(-c4cccc(C(F)(F)F)c4)nc3cn2)nc1	< 5 µM	< 5 µM	< 5 µM
O=C(c1ccc(Nc2cc3[nH]c(-c4ccc(C(F)(F)F)nc4)nc3cn2)nc1)N1CCCC1	196 µM (≈ 88.9 µg/mL)	< 5 µM	< 5 µM
FC(F)(F)c1ccc(Nc2cc3[nH]c(CC4CC4)nc3cn2)nc1	186 µM (≈ 62 µg/mL)	118 µM (≈ 39.3 µg/mL)	156 µM (≈ 52 µg/mL)
FC(F)(F)Oc1ccc(-c2nc3cnc(Nc4ccccn4)cc3[nH]2)cc1	26 µM (≈ 9.65 µg/mL)	< 5 µM	
N#Cc1ccc(Nc2cc3[nH]c(-c4cccc(C(F)(F)F)c4)nc3cn2)nc1	< 5 µM	< 5 µM	50 to 100 µM (≈ 19 to 38 µg/mL)

SMILES	solubility kinetic at 20 h [1]	solubility kinetic at 20 h [2]	solubility kinetic at 20 h [3]
FC(F)(F)c1ccc(Nc2cc3[nH]c([C@H]4CC[C@H](C(F)(F)F)CC4)nc3cn2)nc1	200 µM (≈ 85.9 µg/mL)	< 5 µM	104 µM (≈ 44.7 µg/mL)
FC(F)(F)c1ccc(Nc2cc3[nH]c(C4CCOC4)nc3cn2)nc1 (stereo not drawn)	200 µM (≈ 69.9 µg/mL)	166 µM (≈ 58 µg/mL)	180 µM (≈ 62.9 µg/mL)
O=C(O)c1ccnc(Nc2cc3[nH]c(-c4ccc(C(F)(F)F)nc4)nc3cn2)c1	< 5 µM	< 5 µM	< 5 µM
O=C(c1ccc(Nc2cc3[nH]c(-c4ccc(C(F)(F)F)nc4)nc3cn2)nc1)N1CCNCC1	200 µM (≈ 93.7 µg/mL)	168 µM (≈ 78.7 µg/mL)	161 µM (≈ 75.4 µg/mL)
FC(F)(F)c1cccc(-c2nc3cnc(Nc4ccncn4)cc3[nH]2)c1	200 µM (≈ 71.3 µg/mL)	< 5 µM	
O=C(O)c1ccc(Nc2cc3[nH]c(-c4ccc(F)c(F)c4)nc3cn2)nc1	11 µM (≈ 4.04 µg/mL)	7 µM (≈ 2.57 µg/mL)	9 µM (≈ 3.31 µg/mL)
CN1CCN(c2ccc(Nc3cc4[nH]c(-c5cccc(C(F)(F)F)c5)nc4cn3)nc2)CC1	190 µM (≈ 86.2 µg/mL)		< 5 µM
O=C(O)c1ccc(Nc2cc3[nH]c(-c4cccc(C(F)(F)F)c4)nc3cn2)nc1	< 5 µM	6 µM (≈ 2.4 µg/mL)	6 µM (≈ 2.4 µg/mL)
FC(F)(F)c1cccc(-c2nc3cnc(Nc4cccc(C(F)(F)F)n4)cc3[nH]2)c1	51 µM (≈ 21.6 µg/mL)	< 5 µM	50 to 100 µM (≈ 21.2 to 42.3 µg/mL)
FC(F)(F)c1cccc(-c2nc3cnc(Nc4ccncc4)cc3[nH]2)c1	200 µM (≈ 71.1 µg/mL)	10 µM (≈ 3.55 µg/mL)	
Fc1ccc(Nc2cc3[nH]c(C4CCC(F)(F)CC4)nc3cn2)nc1	200 µM (≈ 69.5 µg/mL)	170 µM (≈ 59 µg/mL)	170 µM (≈ 59 µg/mL)
CCOC(=O)c1ccc(Nc2cc3[nH]c(-c4ccc(C(F)(F)F)nc4)nc3cn2)nc1	164 µM (≈ 70.3 µg/mL)	< 5 µM	127 µM (≈ 54.4 µg/mL)
COc1cccnc1Nc1cc2[nH]c(-c3cccc(C(F)(F)F)c3)nc2cn1	116 µM (≈ 44.7 µg/mL)	< 5 µM	
COc1cccc(Nc2cc3[nH]c(-c4cccc(C(F)(F)F)c4)nc3cn2)n1	85 µM (≈ 32.8 µg/mL)	< 5 µM	
FC1(F)CC(c2nc3cnc(Nc4ccc(C(F)(F)F)cn4)cc3[nH]2)C1	181 µM (≈ 66.8 µg/mL)	118 µM (≈ 43.6 µg/mL)	161 µM (≈ 59.5 µg/mL)
FC(F)(F)c1cccc(-c2nc3cnc(Nc4cc(-c5nnn[nH]5)ccn4)cc3[nH]2)c1	< 5 µM	< 5 µM	< 5 µM
FC1(F)CCC(c2nc3cnc(Nc4ccc(C(F)(F)F)cn4)cc3[nH]2)C1 (stereo not drawn)	185 µM (≈ 70.9 µg/mL)	120 µM (≈ 46 µg/mL)	163 µM (≈ 62.5 µg/mL)
FC(F)(F)c1ccc(Nc2cc3[nH]c(C4CCOCC4)nc3cn2)nc1	196 µM (≈ 71.2 µg/mL)	155 µM (≈ 56.3 µg/mL)	168 µM (≈ 61 µg/mL)
COc1ccc(Nc2cc3[nH]c(-c4cccc(C(F)(F)F)c4)nc3cn2)nc1	< 5 µM	< 5 µM	
FC(F)(F)c1cccc(-c2nc3cnc(Nc4ccc(-c5nnn[nH]5)cn4)cc3[nH]2)c1	< 5 µM	< 5 µM	< 5 µM
Fc1ccnc(Nc2cc3[nH]c(-c4ccc(F)c(F)c4)nc3cn2)c1	166 µM (≈ 56.7 µg/mL)	< 5 µM	50 to 100 µM (≈ 17.1 to 34.1 µg/mL)
